Assay results reported in PubChem BioAssay (NCI).
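Test compounds were applied to cells in 96-well plates for 48 hours at 5 doses. At the GI50, growth is halved. TGI: total growth inhibition.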

tested on: SF-539 CNS; test: DTP human tumour cell line panel, 48 h

SMILES | TGI [µM] | GI50 [µM]
COC(=O)c1ccc2c(c1)CC1(C2)Cc2ccccc2C1=O (stereo unspecified) | > 100 | 
C[C@@H]1CCc2ncc(F)cc2[C@H]2CCCN2c2ccn3ncc(c3n2)C(=O)N1 | > 100 | 54.6

tested on: HOP-92 NSCLC; test: DTP human tumour cell line panel, 48 h

SMILES | TGI [µM] | GI50 [µM]
C1CSCC2(COC2)CSCCSCC2(COC2)CS1 | > 100 | 
Cc1cc(-c2nc3c(F)cccc3s2)ccc1N | > 100 | 
O=[N+]1[C@H](c2ccccc2)[C@H](c2ccccc2)N1[O-] | 30.2 | 
COC(=O)c1ccc2c(c1)CC1(C2)Cc2ccccc2C1=O (stereo unspecified) | 82.9 | 
C[C@@H]1CCc2ncc(F)cc2[C@H]2CCCN2c2ccn3ncc(c3n2)C(=O)N1 | > 100 | 47.8

tested on: SK-MEL-2 melanoma; test: DTP human tumour cell line panel, 48 h

SMILES | TGI [µM] | GI50 [µM]
Cc1cc(-c2nc3c(F)cccc3s2)ccc1N | > 100 | 
COc1ccccc1N/C(SCc1ccccc1)=C(/C(Cl)=C(Cl)Cl)[N+](=O)[O-] | > 100 | 
O=[N+]1[C@H](c2ccccc2)[C@H](c2ccccc2)N1[O-] | 32.8 | 
COC(=O)c1ccc2c(c1)CC1(C2)Cc2ccccc2C1=O (stereo unspecified) | 69.8 | 
C[C@@H]1CCc2ncc(F)cc2[C@H]2CCCN2c2ccn3ncc(c3n2)C(=O)N1 | > 100 | > 100

tested on: RXF 393 renal; test: DTP human tumour cell line panel, 48 h

SMILES | TGI [µM] | GI50 [µM]
Cc1cc(-c2nc3c(F)cccc3s2)ccc1N | > 100 | 
O=[N+]1[C@H](c2ccccc2)[C@H](c2ccccc2)N1[O-] | 28.3 | 
COC(=O)c1ccc2c(c1)CC1(C2)Cc2ccccc2C1=O (stereo unspecified) | > 100 | 
C[C@@H]1CCc2ncc(F)cc2[C@H]2CCCN2c2ccn3ncc(c3n2)C(=O)N1 | 61 | 16.7

tested on: SNB-75 CNS; test: DTP human tumour cell line panel, 48 h

SMILES | TGI [µM] | GI50 [µM]
C1CSCC2(COC2)CSCCSCC2(COC2)CS1 | > 100 | 
Cc1cc(-c2nc3c(F)cccc3s2)ccc1N | > 100 | 
COc1ccccc1N/C(SCc1ccccc1)=C(/C(Cl)=C(Cl)Cl)[N+](=O)[O-] | 84.2 | 
O=[N+]1[C@H](c2ccccc2)[C@H](c2ccccc2)N1[O-] | 37.2 | 
COC(=O)c1ccc2c(c1)CC1(C2)Cc2ccccc2C1=O (stereo unspecified) | 67.3 | 
C[C@@H]1CCc2ncc(F)cc2[C@H]2CCCN2c2ccn3ncc(c3n2)C(=O)N1 | 97 | 19.6

tested on: NCI-H522 lung; test: DTP human tumour cell line panel, 48 h

SMILES | TGI [µM] | GI50 [µM]
C1CSCC2(COC2)CSCCSCC2(COC2)CS1 | > 100 | 
Cc1cc(-c2nc3c(F)cccc3s2)ccc1N | > 100 | 
O=[N+]1[C@H](c2ccccc2)[C@H](c2ccccc2)N1[O-] | 24.2 | 
COC(=O)c1ccc2c(c1)CC1(C2)Cc2ccccc2C1=O (stereo unspecified) | > 100 | 
C[C@@H]1CCc2ncc(F)cc2[C@H]2CCCN2c2ccn3ncc(c3n2)C(=O)N1 | > 100 | 83.7

tested on: MCF7 breast; test: DTP human tumour cell line panel, 48 h

SMILES | TGI [µM] | GI50 [µM]
C1CSCC2(COC2)CSCCSCC2(COC2)CS1 | > 100 | 
Cc1cc(-c2nc3c(F)cccc3s2)ccc1N | > 100 | 
COc1ccccc1N/C(SCc1ccccc1)=C(/C(Cl)=C(Cl)Cl)[N+](=O)[O-] | > 100 | 
O=[N+]1[C@H](c2ccccc2)[C@H](c2ccccc2)N1[O-] | 30.5 | 
COC(=O)c1ccc2c(c1)CC1(C2)Cc2ccccc2C1=O (stereo unspecified) | 52.5 | 
C[C@@H]1CCc2ncc(F)cc2[C@H]2CCCN2c2ccn3ncc(c3n2)C(=O)N1 | > 100 | 53.1

tested on: SF-295 CNS; test: DTP human tumour cell line panel, 48 h

SMILES | TGI [µM] | GI50 [µM]
C1CSCC2(COC2)CSCCSCC2(COC2)CS1 | > 100 | 
Cc1cc(-c2nc3c(F)cccc3s2)ccc1N | > 100 | 
COc1ccccc1N/C(SCc1ccccc1)=C(/C(Cl)=C(Cl)Cl)[N+](=O)[O-] | 59.6 | 
O=[N+]1[C@H](c2ccccc2)[C@H](c2ccccc2)N1[O-] | 38.6 | 
COC(=O)c1ccc2c(c1)CC1(C2)Cc2ccccc2C1=O (stereo unspecified) | > 100 | 
C[C@@H]1CCc2ncc(F)cc2[C@H]2CCCN2c2ccn3ncc(c3n2)C(=O)N1 | > 100 | 60.6

tested on: K-562 leukemia; test: DTP human tumour cell line panel, 48 h

SMILES | TGI [µM] | GI50 [µM]
C1CSCC2(COC2)CSCCSCC2(COC2)CS1 | > 100 | 
Cc1cc(-c2nc3c(F)cccc3s2)ccc1N | > 100 | 
COc1ccccc1N/C(SCc1ccccc1)=C(/C(Cl)=C(Cl)Cl)[N+](=O)[O-] | 57.9 | 
O=[N+]1[C@H](c2ccccc2)[C@H](c2ccccc2)N1[O-] | > 100 | 
COC(=O)c1ccc2c(c1)CC1(C2)Cc2ccccc2C1=O (stereo unspecified) | > 100 | 
C[C@@H]1CCc2ncc(F)cc2[C@H]2CCCN2c2ccn3ncc(c3n2)C(=O)N1 | > 100 | 29.8

tested on: NCI-H226 lung; test: DTP human tumour cell line panel, 48 h

SMILES | GI50 [µM] | TGI [µM]
Cc1cc(-c2nc3c(F)cccc3s2)ccc1N | 5.45 | > 100
COc1ccccc1N/C(SCc1ccccc1)=C(/C(Cl)=C(Cl)Cl)[N+](=O)[O-] |  | > 100
O=[N+]1[C@H](c2ccccc2)[C@H](c2ccccc2)N1[O-] |  | 38.9
COC(=O)c1ccc2c(c1)CC1(C2)Cc2ccccc2C1=O (stereo unspecified) |  | 52.7
C[C@@H]1CCc2ncc(F)cc2[C@H]2CCCN2c2ccn3ncc(c3n2)C(=O)N1 | 28.3 | > 100

tested on: COLO 205 colon; test: DTP human tumour cell line panel, 48 h

SMILES | TGI [µM] | GI50 [µM]
C1CSCC2(COC2)CSCCSCC2(COC2)CS1 | > 100 | 
Cc1cc(-c2nc3c(F)cccc3s2)ccc1N | > 100 | 
COc1ccccc1N/C(SCc1ccccc1)=C(/C(Cl)=C(Cl)Cl)[N+](=O)[O-] | 33.7 | 
O=[N+]1[C@H](c2ccccc2)[C@H](c2ccccc2)N1[O-] | 37.9 | 
COC(=O)c1ccc2c(c1)CC1(C2)Cc2ccccc2C1=O (stereo unspecified) | 42.4 | 
C[C@@H]1CCc2ncc(F)cc2[C@H]2CCCN2c2ccn3ncc(c3n2)C(=O)N1 | > 100 | 75.9

tested on: HT29 colon; test: DTP human tumour cell line panel, 48 h

SMILES | TGI [µM] | GI50 [µM]
C1CSCC2(COC2)CSCCSCC2(COC2)CS1 | > 100 | 
Cc1cc(-c2nc3c(F)cccc3s2)ccc1N | > 100 | 
COc1ccccc1N/C(SCc1ccccc1)=C(/C(Cl)=C(Cl)Cl)[N+](=O)[O-] | 42.4 | 
O=[N+]1[C@H](c2ccccc2)[C@H](c2ccccc2)N1[O-] | 33.1 | 
COC(=O)c1ccc2c(c1)CC1(C2)Cc2ccccc2C1=O (stereo unspecified) | 36 | 
C[C@@H]1CCc2ncc(F)cc2[C@H]2CCCN2c2ccn3ncc(c3n2)C(=O)N1 | > 100 | 68.3

tested on: PC-3 prostate; test: DTP human tumour cell line panel, 48 h

SMILES | TGI [µM] | GI50 [µM]
C1CSCC2(COC2)CSCCSCC2(COC2)CS1 | > 100 | 
Cc1cc(-c2nc3c(F)cccc3s2)ccc1N | > 100 | 
COc1ccccc1N/C(SCc1ccccc1)=C(/C(Cl)=C(Cl)Cl)[N+](=O)[O-] | > 100 | 
O=[N+]1[C@H](c2ccccc2)[C@H](c2ccccc2)N1[O-] | 31.6 | 
COC(=O)c1ccc2c(c1)CC1(C2)Cc2ccccc2C1=O (stereo unspecified) | > 100 | 
C[C@@H]1CCc2ncc(F)cc2[C@H]2CCCN2c2ccn3ncc(c3n2)C(=O)N1 | > 100 | > 100

tested on: MOLT-4 leukemia; test: DTP human tumour cell line panel, 48 h

SMILES | TGI [µM] | GI50 [µM]
C1CSCC2(COC2)CSCCSCC2(COC2)CS1 | > 100 | 
Cc1cc(-c2nc3c(F)cccc3s2)ccc1N | 63.9 | 
COc1ccccc1N/C(SCc1ccccc1)=C(/C(Cl)=C(Cl)Cl)[N+](=O)[O-] | > 100 | 
O=[N+]1[C@H](c2ccccc2)[C@H](c2ccccc2)N1[O-] | 55.2 | 
COC(=O)c1ccc2c(c1)CC1(C2)Cc2ccccc2C1=O (stereo unspecified) | 34.4 | 
C[C@@H]1CCc2ncc(F)cc2[C@H]2CCCN2c2ccn3ncc(c3n2)C(=O)N1 | > 100 | 36.1

tested on: NCI/ADR-RES ovarian; test: DTP human tumour cell line panel, 48 h

SMILES | TGI [µM] | GI50 [µM]
C1CSCC2(COC2)CSCCSCC2(COC2)CS1 | > 100 | 
Cc1cc(-c2nc3c(F)cccc3s2)ccc1N | > 100 | 
COc1ccccc1N/C(SCc1ccccc1)=C(/C(Cl)=C(Cl)Cl)[N+](=O)[O-] | 78.8 | 
O=[N+]1[C@H](c2ccccc2)[C@H](c2ccccc2)N1[O-] | 35.5 | 
COC(=O)c1ccc2c(c1)CC1(C2)Cc2ccccc2C1=O (stereo unspecified) | 68.6 | 
C[C@@H]1CCc2ncc(F)cc2[C@H]2CCCN2c2ccn3ncc(c3n2)C(=O)N1 | > 100 | > 100
